In patent publication US11753388B2, “Composition for inhibiting alpha-glucosidase and application thereof” (ZHENGZHOU FRUIT RESEARCH INSTITUTE, CHINESE ACADEMY OF …, priority 2021, dated 2023):

Test system: α-glucosidase
Test: in vitro α-glucosidase inhibition test (pNPG substrate, OD 405 nm); combination index by Chou-Talalay method with CompuSyn
Format: biochemical, Saccharomyces cerevisiae
Conditions: single compound
Protocol: α-glucosidase (coming from Saccharomyces cerevisiae, Sigma);
an α-glucosidase solution with a concentration being 0.25 U/mL and a substrate p-nitrophenyl-α-D-glucopyranoside (pNPG) solution with a concentration being […] were prepared by using a PBS buffer solution (0.1 mol L−1 pH 6.8).
40 μL α-glucosidase solution was accurately removed, 100 μL of sample solution to be tested was added respectively, reacted for 10 min at 37° C., then 60 μL of substrate p-nitrophenyl-α-D-glucopyranoside (pNPG) solution was added, reacted for 15 min at 37° C., and an enzyme-linked analyzer measured at a wavelength of 405 nm.
First, daidzein, taxifolin, and 3-O-methyl quercetin were respectively prepared into 10 mg/mL mother solutions by using dimethyl sulfoxide (DMSO); and then a sample solution of the specific concentration of the daidzein, taxifolin, and 3-O-methyl quercetin and composition was prepared with PBS buffer solution.

COc1c(-c2ccc(O)c(O)c2)oc2cc(O)cc(O)c2c1=O [3-O-methyl quercetin, 3-O-Methyl Quercetin]
Inhibition rate (2 μg/mL): 46.23±1.2% | Inhibition rate (4 μg/mL): 53.52±3.2% | Inhibition rate (6 μg/mL): 61.72±3.5%

O=c1cc(-c2ccccc2)oc2cc(O)c(O)c(O)c12 [Baicalein]
Inhibition rate (10 μg/mL): 38.8 ± 3.3%

COc1ccc(-c2coc3cc(O)cc(O)c3c2=O)cc1 [Biochanin A]
Inhibition rate (0.7 μg/mL): 38.5 ± 2.1%

Oc1cc(O)c2cc(O)c(-c3ccc(O)c(O)c3)[o+]c2c1.[Cl-] [Cyanidin]
Inhibition rate (0.7 μg/mL): 47.5 ± 1.4%

O=c1c(-c2ccc(O)cc2)coc2cc(O)ccc12 [Daidzein]
Inhibition rate (8 μg/mL): 44.5±2.5% | Inhibition rate (10 μg/mL): 52.25±2.5%

Oc1cc(O)c2cc(O)c(-c3cc(O)c(O)c(O)c3)[o+]c2c1.[Cl-] [Delphinidin]
Inhibition rate (1 μg/mL): 50.2 ± 4.3%

O=C1c2c(O)cc(O)cc2OC(c2ccc(O)cc2O)C1O (stereo not shown) [Dihydromorin]
Inhibition rate (15 μg/mL): 25.7 ± 4.7%

O=C(O[C@@H]1Cc2c(O)cc(O)cc2O[C@@H]1c1cc(O)c(O)c(O)c1)c1cc(O)c(O)c(O)c1 [Epigallocatechin gallate]
Inhibition rate (0.06 μg/mL): 42.5 ± 3.5%

O=c1c(O)c(-c2ccc(O)c(O)c2)oc2cc(O)ccc12 [Fisetin]
Inhibition rate (6 μg/mL): 46.5 ± 2.3%

COc1ccc(-c2coc3cc(O)ccc3c2=O)cc1 [Formononetin]
Inhibition rate (20 μg/mL): 60.07 ± 5.3%

COc1cc(O)c2c(=O)cc(-c3ccc(O)cc3)oc2c1 [Genkwanin]
Inhibition rate (35 μg/mL): 70.12 ± 5.5%

COc1ccc(C2CC(=O)c3c(O)cc(O)cc3O2)cc1O (stereo not shown) [Hesperetin]
Inhibition rate (30 μg/mL): 45.2 ± 3.2%

O=C(/C=C/c1ccc(O)cc1)c1ccc(O)cc1O [Isoliquiritigenin]
Inhibition rate (4 μg/mL): 35.2 ± 2.5%

COc1ccc(-c2oc3cc(O)cc(O)c3c(=O)c2O)cc1 [Kaempferide]
Inhibition rate (5 μg/mL): 30.8 ± 1.3%

O=c1c(O)c(-c2ccc(O)cc2)oc2cc(O)cc(O)c12 [Kaempferol]
Inhibition rate (2.5 μg/mL): 40.83 ± 2.3%

O=c1cc(-c2ccc(O)c(O)c2)oc2cc(O)cc(O)c12 [Luteolin]
Inhibition rate (1 μg/mL): 45.5 ± 2.7%

O=c1c(O)c(-c2ccc(O)cc2O)oc2cc(O)cc(O)c12 [Morin]
Inhibition rate (1 μg/mL): 41.2 ± 2.7%

O=c1c(O)c(-c2cc(O)c(O)c(O)c2)oc2cc(O)cc(O)c12 [Myricetin]
Inhibition rate (1 μg/mL): 41.2 ± 1.5%

O=C(CCc1ccc(O)cc1)c1c(O)cc(O)cc1O [Phloretin]
Inhibition rate (8 μg/mL): 46.3 ± 2.7%

O=C1c2c(O)cc(O)cc2O[C@H](c2ccc(O)c(O)c2)[C@H]1O [Taxifolin]
Inhibition rate (25 μg/mL): 40.12±2.1% | Inhibition rate (30 μg/mL): 54.5±2.4% | Inhibition rate (50 μg/mL): 75.21±3.4%

Chrysin
Inhibition rate (100 μg/mL): 51.2 ± 5.5%

Herbacetin
Inhibition rate (2.5 μg/mL): 35.2 ± 1.2%

Vitexin
Inhibition rate (10 μg/mL): 29.2 ± 1.4%
